{"source": "patent US9656953B2", "about": "“Inhibition of cell proliferation” (University of South Florida, priority 2005, dated 2017)", "key": {"[1]": {"system": "cyclin D kinase activity", "assay": "In vitro kinase assay, cyclin D", "assay_type": "biochemical", "method": "In vitro kinase assay. The kinase reaction for Raf-1 was carried out with 100 nanograms (ng) of Raf-1 (Upstate Signaling, Charlottesville, Va.), 0.5 μg of full-length Rb protein (QED Bioscience, San Diego, Calif.) as the substrate, 10 μM ATP, 10 μCi of [γ-^32P] ATP in the kinase assay buffer in the presence or absence of the drugs at 30° C. for 30 minutes. Cyclin D and E kinase assays are described in (Dasgupta 2004)."}, "[2]": {"system": "H1650 cells", "assay": "Soft agar assay, H1650", "assay_type": "cell-based", "method": "(§1) Soft Agar Assay. Soft agar assays were done in triplicate in 12-well plates (Corning, Corning N.Y.). First, the bottom layer of agar (0.6%) was allowed to solidify at room temperature. Next the top layer of agar was (0.3%) was mixed with 5,000 cells per well and the indicated drug. The drugs were added twice weekly in complete media to the agar wells. Colonies were quantified by staining with MTT (3-(4,5-Dimethylthiazol-2-yl)-2,5-diphenyltetrazolium bromide) 1 mg/mL for 1 hour at 37° C.\n(§2) Experiments were also carried out to examine the effect of 3a in inhibiting the adherence-independent growth of cancer cells in soft agar."}, "[3]": {"system": "H1650 non-small cell lung cancer cell line", "assay": "BrdU incorporation, S-phase entry, H1650", "assay_type": "cell-based", "details": "EGFR mutant NSCLC", "method": "(§3) Proliferation assays. Bromodeoxyuridine (BrdU) labeling kits were obtained from Roche Biochemicals (Indianapolis, Ind.). Cells were plated in poly-D-lysine coated chamber slides at a density of 10,000 cells per well and rendered quiescent by serum starvation for 24 hours. Cells were then re-stimulated with serum in the presence or absence of the indicated drugs for 18 h. S-phase cells were visualized by microscopy and quantitated by counting 3 fields of 100 in quadruplicate.\nBecause many cancers contain more than one mutation in tumor suppressor genes or oncogenes, we determined the ability of 3a to inhibit proliferation in cell lines containing alterations in key regulatory genes."}, "[4]": {"system": "cyclin D", "assay": "Western/IP-western, cyclin D level and association with Rb", "assay_type": "cell-based, human", "details": "IP-western", "source_text": "(§4) Lysate preparation, pmmunoprecipitation, and pestern plotting."}, "[5]": {"system": "A549 cells", "assay": "Soft agar assay, A549", "assay_type": "cell-based, human", "method": "as §1, §2"}, "[6]": {"target": "T1, binding of Rb to Raf-1 in A-549 cells (Homo sapiens, UniProt P04049+P06400)", "T1 construct": "endogenous in cells; host or cells: A549", "T1 sequence (P06400 whole entry)": "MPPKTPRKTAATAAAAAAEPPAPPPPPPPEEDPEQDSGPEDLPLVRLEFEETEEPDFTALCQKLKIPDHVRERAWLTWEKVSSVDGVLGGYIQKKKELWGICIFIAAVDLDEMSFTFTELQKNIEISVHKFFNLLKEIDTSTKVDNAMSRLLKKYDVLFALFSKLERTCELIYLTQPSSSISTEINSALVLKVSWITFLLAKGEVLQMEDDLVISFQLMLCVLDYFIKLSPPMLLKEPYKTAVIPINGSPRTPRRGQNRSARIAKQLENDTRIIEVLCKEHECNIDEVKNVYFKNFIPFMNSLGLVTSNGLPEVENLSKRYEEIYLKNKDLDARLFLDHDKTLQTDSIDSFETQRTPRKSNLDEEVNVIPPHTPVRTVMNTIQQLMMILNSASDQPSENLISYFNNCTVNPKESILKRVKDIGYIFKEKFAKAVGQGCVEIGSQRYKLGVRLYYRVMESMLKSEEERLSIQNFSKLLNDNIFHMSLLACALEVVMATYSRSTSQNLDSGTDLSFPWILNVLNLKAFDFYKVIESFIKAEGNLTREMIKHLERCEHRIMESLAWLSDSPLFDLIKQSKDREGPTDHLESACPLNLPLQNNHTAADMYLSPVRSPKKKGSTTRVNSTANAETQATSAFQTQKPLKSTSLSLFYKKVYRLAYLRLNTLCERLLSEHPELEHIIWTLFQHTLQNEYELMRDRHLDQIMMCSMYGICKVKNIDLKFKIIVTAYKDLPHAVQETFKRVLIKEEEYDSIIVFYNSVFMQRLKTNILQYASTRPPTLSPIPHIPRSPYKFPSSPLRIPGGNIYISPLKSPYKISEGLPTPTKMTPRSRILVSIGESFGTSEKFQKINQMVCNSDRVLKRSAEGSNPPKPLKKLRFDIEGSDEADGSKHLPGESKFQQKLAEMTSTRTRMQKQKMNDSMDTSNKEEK", "T1 sequence (P04049 whole entry)": "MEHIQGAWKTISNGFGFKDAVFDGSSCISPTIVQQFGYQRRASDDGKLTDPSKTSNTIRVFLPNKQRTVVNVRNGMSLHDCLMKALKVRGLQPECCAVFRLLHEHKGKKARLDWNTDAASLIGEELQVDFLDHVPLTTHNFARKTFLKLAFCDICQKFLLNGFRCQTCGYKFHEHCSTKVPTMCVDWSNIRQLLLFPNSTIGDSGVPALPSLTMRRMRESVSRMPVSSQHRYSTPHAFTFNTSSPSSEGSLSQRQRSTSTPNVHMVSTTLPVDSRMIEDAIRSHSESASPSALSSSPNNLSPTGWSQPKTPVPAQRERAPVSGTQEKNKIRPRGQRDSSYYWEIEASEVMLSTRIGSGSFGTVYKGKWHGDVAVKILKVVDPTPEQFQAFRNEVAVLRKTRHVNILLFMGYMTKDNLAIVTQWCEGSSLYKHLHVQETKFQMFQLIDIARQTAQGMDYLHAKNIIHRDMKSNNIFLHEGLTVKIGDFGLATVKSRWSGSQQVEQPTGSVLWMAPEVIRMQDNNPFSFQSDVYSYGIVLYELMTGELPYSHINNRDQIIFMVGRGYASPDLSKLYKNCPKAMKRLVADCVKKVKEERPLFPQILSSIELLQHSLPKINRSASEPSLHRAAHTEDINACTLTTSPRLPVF", "assay": "IP-western, serum stimulated A-549 cells, Rb:Raf-1", "assay_type": "cell-based", "source_text": "as §4"}, "[7]": {"system": "A549 cells infected with Ad-cyclin D", "assay": "BrdU incorporation, A549 infected with Ad-cyclin D", "assay_type": "cell-based, human", "details": "20 μM of 3a for 36 h", "method": "as §3\nTo this end, A549 cells were infected with Ad-E2F1 or Ad-cyclin D, in the presence of 20 μM of 3a for 36 h. Ad-GFP infected cells were used as a control."}, "[8]": {"system": "SK-MEL-28 cells", "assay": "Soft agar assay, SK-MEL-28", "assay_type": "cell-based", "method": "as §1, §2"}, "[9]": {"system": "A549 tumors", "assay": "A549 xenograft in nude mice", "assay_type": "in vivo", "details": "for tumor size, A549 xenograft: vehicle 1039±128 mm^3", "method": "Animal Studies. Nude mice (Charles River, Wilminton, Mass., USA) were maintained in accordance with Institutional Animal Care and Use Committee (IAUCUC) procedures and guidelines. A549 cells were harvested and resuspended in PBS, and then injected s.c. into the right and left flanks (10×10^6 cells per flank) of 8-week old female nude mice as reported previously (Sun 99). When tumors reached about 100-200 mm^3, animals were dosed intraperitoneally i.p. or orally by gavage with 0.1 mL solution once daily. […] The tumor volumes were determined by measuring the length (l) and the width (w) and calculating the volume (V=lw^2/2) as described previously (Sun 99). Statistical significance between control and treated animals were evaluated using Student's t-test."}, "[10]": {"system": "LNCaP prostate cell line", "assay": "BrdU proliferation assay, LNCaP", "assay_type": "cell-based", "method": "as §3\nProstate cell lines LNCaP and PC3 both contain mutations in K-Ras and PTEN genes."}, "[11]": {"system": "Rb phosphorylation (serines 807 and 811)", "assay": "Western blot of Rb phosphorylation, A549 cells", "assay_type": "cell-based, human", "details": "cells treated 18 hours, western blotting", "source_text": "as §4"}, "[12]": {"system": "A549 cells stably expressing sh8", "assay": "BrdU incorporation, A549 Rb shRNA sh8", "assay_type": "cell-based, human", "details": "20 μM, Rb knock down", "method": "as §3\n(§5) To further confirm that 3a requires a functional Rb to inhibit tumor cell proliferation, A549 cells (human epithelial lung carcinoma) were stably transfected with two different shRNA constructs (sh6 and sh8) to knock down Rb expression."}, "[13]": {"system": "binding of Raf-1 to Mek1/2", "assay": "IP-western, A-549 cells, Raf-1-Mek1/2", "assay_type": "cell-based, human", "source_text": "as §4"}, "[14]": {"system": "A549 cells stably expressing sh6", "assay": "BrdU incorporation, A549 Rb shRNA sh6", "assay_type": "cell-based, human", "details": "20 μM, Rb knock down", "method": "as §3, §5"}, "[15]": {"system": "A549 cells", "assay": "BrdU incorporation, S-phase entry, A549", "assay_type": "cell-based, human", "details": "20 μM", "method": "as §3, §5"}, "[16]": {"system": "U87MG glioblastoma cell line", "assay": "BrdU incorporation, S-phase entry, U87MG", "assay_type": "cell-based", "details": "null for p16 and PTEN", "method": "as §3"}, "[17]": {"system": "cdc6, cdc25A and TS promoters", "assay": "Chromatin immunoprecipitation (ChIP) assay, A549 cells", "assay_type": "cell-based, human", "details": "20 μM", "method": "Chromatin immunoprecipitation (ChIP) assay. A549 cells were rendered quiescent by serum starvation and re-stimulated with serum for 2h or 16h in the presence or absence of RRD 251 at 20μM. Cells were cross-linked with 1% formaldehyde for 10 minutes at room temperature. Subsequently, the cells were harvested and lysates were prepared. Immunoprecipitations were analyzed for the presence of E2F1, Rb, Raf-1, Brg1, HP1, and HDAC1 by PCR as previously described (Dasgupta 2004). Rabbit anti-mouse secondary antibody was used as the control for all reactions. The sequences of the PCR primers used in the PCRs were as follows: Cdc6 promoter (forward primer), 5′- […]-3′ (SEQ ID NO:1); and Cdc6 promoter (reverse primer), 5′-[…]-3′ (SEQ ID NO:2). TS promoter (forward primer), and 5′-GAC GGA GGC AGG CCA AGT G-3′ SEQ ID NO:3) TS promoter (reverse primer). The cdc25A and c-fos primers are described in (Dasgupta, 2004).\nSince serum is known to stimulate the binding of Raf-1 to Rb and leads to the dissociation of the co-repressor Brg-1 from E2F-responsive proliferative promoters like cdc6, cdc25 and TS promoters, it was hypothesized that 3a may interfere with this process. […] Binding of E2F1, HDAC1 and HP1 was not affected."}, "[18]": {"target": "T2, Rb/E2F1 interaction in tumor xenografts (Homo sapiens, UniProt P06400+Q01094)", "T2 construct": "from tissue; host or cells: A549 xenograft tumors from nude mice", "T2 sequence (P06400 whole entry)": "as the sequence (P06400 whole entry) above", "T2 sequence (Q01094 whole entry)": "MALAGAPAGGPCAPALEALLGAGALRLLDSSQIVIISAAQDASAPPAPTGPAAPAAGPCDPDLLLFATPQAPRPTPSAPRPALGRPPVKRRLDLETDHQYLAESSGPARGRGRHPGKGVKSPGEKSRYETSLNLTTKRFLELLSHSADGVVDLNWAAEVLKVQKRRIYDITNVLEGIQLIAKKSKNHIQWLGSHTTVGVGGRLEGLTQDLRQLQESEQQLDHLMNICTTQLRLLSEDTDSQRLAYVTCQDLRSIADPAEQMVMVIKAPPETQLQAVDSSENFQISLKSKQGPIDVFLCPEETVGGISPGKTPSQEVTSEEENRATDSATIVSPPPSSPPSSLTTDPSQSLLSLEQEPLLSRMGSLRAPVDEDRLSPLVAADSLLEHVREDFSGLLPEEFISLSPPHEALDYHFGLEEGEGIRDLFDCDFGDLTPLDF", "assay": "IP-Western of tumor lysates, Rb/E2F1", "assay_type": "in vivo, nude mice", "details": "both doses"}}, "note": "“Also recorded” adds a separate entry of the source."}
{"smiles": "Cl.N=C(N)SCc1ccc(Cl)cc1Cl", "note": "[Compound 3a]", "values": [{"measurement": "cyclin D kinase activity", "setting": "[1]", "value": "does not inhibit; also recorded: did not affect the kinase activities"}, {"measurement": "adherence-independent growth in soft agar, H1650", "setting": "[2]", "value": "significantly inhibited the growth"}, {"measurement": "inhibition of S-phase entry, H1650", "setting": "[3]", "value": 90, "unit": "%"}, {"measurement": "level of cyclin D and its association with Rb", "setting": "[4]", "value": "tended to reduce the levels of cyclin D as well as its association with Rb; also recorded: reduced"}, {"measurement": "adherence-independent growth in soft agar, A549", "setting": "[5]", "value": "significantly inhibited the growth"}, {"measurement": "serum stimulated binding of Rb to Raf-1", "setting": "[6]", "value": "inhibited"}, {"measurement": "rescue of anti-proliferative activity by cyclin D over expression", "setting": "[7]", "value": "only a partial effect"}, {"measurement": "adherence-independent growth in soft agar, SK-MEL-28", "setting": "[8]", "value": "significantly inhibited the growth"}, {"measurement": "A549 tumor growth in words, 3a", "setting": "[9]; 50 mpk/day i.p. or 150 mpk/day oral", "value": "completely inhibit tumor growth; also recorded: did not grow"}, {"measurement": "tumor size, A549 xenograft", "setting": "[9]; 50 mpk/day i.p.", "value": "144±20", "unit": "mm^3"}, {"measurement": "tumor size, A549 xenograft", "setting": "[9]; 150 mpk/day oral", "value": "148±32", "unit": "mm^3"}, {"measurement": "inhibition of proliferation, LNCaP", "setting": "[10]", "value": 86, "unit": "%"}, {"measurement": "Rb phosphorylation", "setting": "[11]", "value": "reduced Rb phosphorylation significantly; also recorded: marked reduction in Rb phosphorylation"}, {"measurement": "S-phase entry (BrdU), A549 sh8", "setting": "[12]", "value": "does not inhibit the proliferation; also recorded: no effect"}, {"measurement": "serum-mediated binding of Raf-1 to Mek1/2", "setting": "[13]", "value": "not affected"}, {"measurement": "S-phase entry (BrdU), A549 sh6", "setting": "[14]", "value": "does not inhibit the proliferation; also recorded: no effect"}, {"measurement": "S-phase entry (BrdU), parental A549", "setting": "[15]", "value": "arrests wild-type A549 cells; also recorded: very effective"}, {"measurement": "S-phase entry, U87MG", "setting": "[16]", "value": "inhibited S-phase entry"}, {"measurement": "Raf-1 binding to E2F-responsive promoters upon serum stimulation", "setting": "[17]", "value": "causes the dissociation of Raf-1; also recorded: disrupted"}, {"measurement": "binding of E2F1, HDAC1 and HP1 to promoters", "setting": "[17]", "value": "not affected"}, {"measurement": "dissociation of co-repressor Brg-1 from promoters", "setting": "[17]", "value": "retention of Brg1; also recorded: inhibited"}, {"measurement": "Rb/E2F1 interaction in tumor lysates", "setting": "[18]", "value": "without inhibiting Rb-E2F1 interaction; also recorded: not Rb/E2F1 interaction"}]}
